In PMC6900016, “Synthesis of Indomorphan Pseudo‐Natural Product Inhibitors of Glucose Transporters GLUT‐1 and ‐3” (Angewandte Chemie (International Ed. in English), 2019) one finds IC50 data, which are given here for one compound.

Holding throughout (assay): cells
What all share (design): Cell growth inhibition, sulforhodamine B total protein staining

In one experiment the test system is THP1. The following applies: Homo sapiens, THP-1; 72 h growth; read-out: Cell growth inhibition IC50/µM. Here is the method:
(§1) Cell panel profiling A panel of 94 cell lines was exposed to Glupin for 72 h to assess the influence on cell growth (Oncolead, Germany). Cell growth was determined using sulforhodamine B assay. Measurements were performed using a total protein staining protocol. Briefly, after treatement cells were fixed addition of 10% TCA (for adherent growing cells) or 50% TCA (for semi-adherent growing cells or cells growing in suspension). After an incubation at 4°C for 1 h, plates were washed twice with 400 μl of deionized water and dried. Cells were then stained with 100 μl of 0.04% wt/v sulforhodamine B. Plates were incubated at room temperature for at least 30 min and washed six times with 1% acetic acid to remove unbound stain. […] This effect was much stronger at a physiological glucose concentration (5 mM; Figure 5 b,c). […] IC50 values lower than 300 nM were obtained for more than 20 cell lines, whereas 24 cell lines were not affected by the compound, among them the peripheral blood mononuclear control cells (PBMCs). Sensitivity to Glupin was detected across various tissue types (Table S6).

A further experiment relates to PBMC. The note with it: PBMC; 72 h growth; read-out: Cell growth inhibition IC50/µM. Here is the method: as §1
The next experiment concerns NCIH460. The note with it: Homo sapiens, NCI-H460; 72 h growth; read-out: Cell growth inhibition IC50/µM. Here is the method: as §1
For another experiment, the system named is OVCAR4. The following applies: Homo sapiens, OVCAR-4; 72 h growth; read-out: Cell growth inhibition IC50/µM. Here is the method: as §1
Another experiment has as its system JAR. The following applies: 72 h growth; read-out: Cell growth inhibition IC50/µM. Here is the method:
as §1

The subject of the next experiment is BT20. The note with it: Homo sapiens, BT-20; 72 h growth; read-out: Cell growth inhibition IC50/µM. Here is the method:
as §1

A further experiment concerns CACO2. The note with it: Homo sapiens, Caco-2; 72 h growth; read-out: Cell growth inhibition IC50/µM. Here is the method:
as §1

A further experiment has as its system HELA. The following applies: Homo sapiens, HeLa; 72 h growth; read-out: Cell growth inhibition IC50/µM. Here is the method: as §1
In a further experiment the test system is HEPG2. The following applies: Homo sapiens, HepG2; 72 h growth; read-out: Cell growth inhibition IC50/µM. Here is the method: as §1
A further experiment concerns A2780. The note with it: Homo sapiens, A2780; 72 h growth; read-out: Cell growth inhibition IC50/µM. Here is the method:
as §1

A further experiment concerns UO31. The following applies: Homo sapiens, UO-31; 72 h growth; read-out: Cell growth inhibition IC50/µM. Here is the method:
as §1

The subject of a further experiment is EFO21. The note with it: Homo sapiens, EFO-21; 72 h growth; read-out: Cell growth inhibition IC50/µM. Here is the method:
as §1

The next experiment concerns RDES. The following applies: RD-ES; 72 h growth; read-out: Cell growth inhibition IC50/µM. Here is the method:
as §1

A further experiment concerns SKHEP1. The note with it: Homo sapiens, SK-HEP1; 72 h growth; read-out: Cell growth inhibition IC50/µM. Here is the method:
as §1

A further experiment deals with UMUC3. The following applies: Homo sapiens, UMUC3; 72 h growth; read-out: Cell growth inhibition IC50/µM. Here is the method:
as §1

Another experiment has as its system PANC1005. The following applies: Homo sapiens, Panc1005; 72 h growth; read-out: Cell growth inhibition IC50/µM. Here is the method: as §1
The next experiment deals with J82. The following applies: Homo sapiens, J82; 72 h growth; read-out: Cell growth inhibition IC50/µM. Here is the method:
as §1

For a further experiment, the system named is HCT116. The following applies: Homo sapiens, HCT-116; 72 h growth; read-out: Cell growth inhibition IC50/µM. Here is the method:
as §1

The test system of a further experiment is HT1080. The note with it: Homo sapiens, HT-1080; 72 h growth; read-out: Cell growth inhibition IC50/µM. Here is the method:
as §1

Another experiment has as its system PLCPRF5. The following applies: Homo sapiens, PLC-PRF-5; 72 h growth; read-out: Cell growth inhibition IC50/µM. Here is the method: as §1
For the next experiment, the system named is 5637. The note with it: 72 h growth; read-out: Cell growth inhibition IC50/µM. Here is the method:
as §1

For the next experiment, the system named is HL60. The following applies: Homo sapiens, HL-60; 72 h growth; read-out: Cell growth inhibition IC50/µM. Here is the method:
as §1

The test system of a further experiment is CLS439. The note with it: 72 h growth; read-out: Cell growth inhibition IC50/µM. Here is the method:
as §1

The next experiment has as its system RAMOS. The following applies: Homo sapiens, Ramos; 72 h growth; read-out: Cell growth inhibition IC50/µM. Here is the method:
as §1

For `CCOC(=O)Cn1c2c(c3ccccc31)C[C@@H]1C[C@H]2C(OC)CN1C(=O)c1cccnc1SC` (single isomer, unassigned; (+)) [(+)-5a, Glupin], the IC50 in the experiment with THP1 is over 30 µM; with PBMC, over 30 µM; in the experiment on NCIH460 it was 0.572 µM; in the experiment on OVCAR4, 1.41 µM; with JAR, 0.886 µM; with BT20, over 30 µM. The IC50 in the experiment on CACO2 was 3.51 µM; with HELA, 1.25 µM; with HEPG2 it was over 30 µM; in the experiment on A2780, 0.248 µM; in the experiment on UO31 it was 0.109 µM; in the experiment with EFO21, over 30 µM. Moreover, the IC50 in the experiment on RDES came to 3.71 µM; in the experiment on SKHEP1, 0.569 µM; in the experiment on UMUC3, 0.032 µM; in the experiment on PANC1005, 0.269 µM; in the experiment on J82 it was 7.25 µM; in the experiment on HCT116 it was 1.47 µM. The IC50 in the experiment with HT1080 is 0.118 µM; in the experiment on PLCPRF5 it was over 30 µM; with 5637 it was 0.114 µM; with HL60 it was 0.112 µM; with CLS439 it was 0.24 µM; in the experiment on RAMOS, 0.212 µM.
